Here are results for three compounds from patent US12437835B2, “Interrogatory cell-based assays and uses thereof” (Berg LLC, priority 2012, dated 2025).

Entries after “also recorded” stand apart in the source; their conditions may differ.

One test addresses FASN (Mus musculus, UniProt P19096). The settings on record: in vivo; cited from earlier work.
The target in a further test is T1, ENO1 (Homo sapiens, UniProt P06733).
T1 construct: endogenous in cells; host or cells: HepG2 (ATCC HB-8065)
Kind of test: Global enzyme activity analysis (ATP/ADP probe, LC-MS/MS) in HepG2. Format: cell-based. The settings on record: HepG2, Sorafenib 1 μM, 24 hours; relative to control, untreated sample. The text has this:
(§1) Multikinase inhibitor Sorafenib, a first line chemotherapeutic agent for the advanced HCC patients, was used to probe the role of global kinase activity and protein phosphorylation changes associated with this treatment. The HepG2 (ATCC Ascension No. HB-8065) cell line was selected to model HCC cells and the THLE2 (ATCC Ascension No. CRL-10149) cell line was selected to model normal hepatic cells.
(§2) FIG. 41B illustrates a method for global enzyme (e.g., kinase) enrichment profiling. First, a cell lysate including the targeted enzyme (e.g., kinase) is parepared. The second step is probe binding (e.g., an ATP probe in the case of kinase). Theny the enzyme is digested and brobe-bound fragments are captured. These fragments can be analyzed (e.g., by LC-MS/MS) and the corresponding protein thus identified (e.g., via a database search of the LC-Ms/MS data).
(§3) THERMO SCIENTIFIC© PIERCE® Kinase Enrichment Kits and ACTIVX© probes (instructions available from THERMO SCIENTIFIC© and PIERCE® Biotechnology www.thermoscientific.com/pierce) were used for global enzyme activity analysis. Briefly, these and similar kits enable selective labeling and enrichment of ATPases including kinases, chaperones and metabolic enzymes. ATP and ADP Probes are generally nucleotide derivatives, which covalently modify the active site of enzymes with conserved lysine residues in the nucleotide-binding site. For example, the structure of desthiobiotin-ATP and -ADP consists of a modified biotin attached to the nucleotide by a labile acyl-phosphate bond. Depending on the position of the lysine within the enzyme active site, either desthiobiotin-ATP or -ADP can be preferred for labeling specific ATPases.
(§4) The cells were cultured according to the following protocol. Day 1: HepG2/Hep3B—seed 3.2×10^6 cells in T-75 culture flasks; 7.4×10^6 cells in T-175 culture flasks; or 9.5×10^6 cells in T-225 culture flasks. THLE-2—seed 1.3×10^6 cells in T-75 culture flasks. Day 2: 16-24 hours later, at 50-70% confluence—add treatment. Control: DMSO at final concentration of 0.01%. EGF: 500 ng/mL in 10 mM acetic acid. […]

Test [1] deals with T2, LDHA (Homo sapiens, UniProt P00338).
T2 construct: endogenous in cells; host or cells: HepG2
The description is as above. The test is classed as cell-based. The settings on record: HepG2, Sorafenib 1 μM, 24 hours.
Source text: as §1, §2, §3, §4

The target of a further test is T3, PGK1 (Homo sapiens, UniProt P00558).
T3 construct: endogenous in cells; host or cells: HepG2 (ATCC HB-8065)
T3 sequence (P00558 1-417): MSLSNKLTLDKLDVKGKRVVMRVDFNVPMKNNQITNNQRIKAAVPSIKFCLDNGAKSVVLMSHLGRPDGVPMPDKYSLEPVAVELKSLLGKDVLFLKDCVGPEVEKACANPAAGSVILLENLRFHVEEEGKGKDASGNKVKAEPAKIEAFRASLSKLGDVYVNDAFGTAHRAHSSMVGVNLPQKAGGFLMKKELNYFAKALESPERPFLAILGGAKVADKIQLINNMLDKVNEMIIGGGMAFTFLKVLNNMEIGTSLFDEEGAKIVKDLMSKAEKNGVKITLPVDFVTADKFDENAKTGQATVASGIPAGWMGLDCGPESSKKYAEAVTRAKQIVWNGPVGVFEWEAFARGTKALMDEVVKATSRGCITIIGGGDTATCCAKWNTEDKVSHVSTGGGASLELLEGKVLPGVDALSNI
The description is as above. The test is classed as cell-based. The settings on record: HepG2, Sorafenib 1 μM, 24 hours.
Source text: as §1, §2, §3, §4

In test [2] the test system is LDHA. Kind of test: Protein expression (quantitative proteomics) in HepG2. The settings on record: HepG2, Sorafenib 1 μM, 24 hours. Format: cell-based, Homo sapiens. The procedure: as §1
The cells were cultured according to the following protocol. Day 1: HepG2/Hep3B—seed 3.2×10^6 cells in T-75 culture flasks; 7.4×10^6 cells in T-175 culture flasks; or 9.5×10^6 cells in T-225 culture flasks. THLE-2—seed 1.3×10^6 cells in T-75 culture flasks. Day 2: 16-24 hours later, at 50-70% confluence—add treatment. Control: DMSO at final concentration of 0.01%. EGF: 500 ng/mL in 10 mM acetic acid. Sorafenib: 1 μM at 0.1% volume in DMSO. Day 3: 24 hours after treatment, harvest cells by trypsinization. Wash pellets 2× with PBS before freezing.
Thus, the phospho proteome affords an additional layer of information that can be used for elucidating the complex relationship between the effect of an extracellular signal (e.g., drug molecule) on kinase activity and total cellular protein, thereby facilitating the identification of disease treatment targets, as well as diagnostic/prognostic markers associated with disease.

Sequence of FASN (P19096 whole entry): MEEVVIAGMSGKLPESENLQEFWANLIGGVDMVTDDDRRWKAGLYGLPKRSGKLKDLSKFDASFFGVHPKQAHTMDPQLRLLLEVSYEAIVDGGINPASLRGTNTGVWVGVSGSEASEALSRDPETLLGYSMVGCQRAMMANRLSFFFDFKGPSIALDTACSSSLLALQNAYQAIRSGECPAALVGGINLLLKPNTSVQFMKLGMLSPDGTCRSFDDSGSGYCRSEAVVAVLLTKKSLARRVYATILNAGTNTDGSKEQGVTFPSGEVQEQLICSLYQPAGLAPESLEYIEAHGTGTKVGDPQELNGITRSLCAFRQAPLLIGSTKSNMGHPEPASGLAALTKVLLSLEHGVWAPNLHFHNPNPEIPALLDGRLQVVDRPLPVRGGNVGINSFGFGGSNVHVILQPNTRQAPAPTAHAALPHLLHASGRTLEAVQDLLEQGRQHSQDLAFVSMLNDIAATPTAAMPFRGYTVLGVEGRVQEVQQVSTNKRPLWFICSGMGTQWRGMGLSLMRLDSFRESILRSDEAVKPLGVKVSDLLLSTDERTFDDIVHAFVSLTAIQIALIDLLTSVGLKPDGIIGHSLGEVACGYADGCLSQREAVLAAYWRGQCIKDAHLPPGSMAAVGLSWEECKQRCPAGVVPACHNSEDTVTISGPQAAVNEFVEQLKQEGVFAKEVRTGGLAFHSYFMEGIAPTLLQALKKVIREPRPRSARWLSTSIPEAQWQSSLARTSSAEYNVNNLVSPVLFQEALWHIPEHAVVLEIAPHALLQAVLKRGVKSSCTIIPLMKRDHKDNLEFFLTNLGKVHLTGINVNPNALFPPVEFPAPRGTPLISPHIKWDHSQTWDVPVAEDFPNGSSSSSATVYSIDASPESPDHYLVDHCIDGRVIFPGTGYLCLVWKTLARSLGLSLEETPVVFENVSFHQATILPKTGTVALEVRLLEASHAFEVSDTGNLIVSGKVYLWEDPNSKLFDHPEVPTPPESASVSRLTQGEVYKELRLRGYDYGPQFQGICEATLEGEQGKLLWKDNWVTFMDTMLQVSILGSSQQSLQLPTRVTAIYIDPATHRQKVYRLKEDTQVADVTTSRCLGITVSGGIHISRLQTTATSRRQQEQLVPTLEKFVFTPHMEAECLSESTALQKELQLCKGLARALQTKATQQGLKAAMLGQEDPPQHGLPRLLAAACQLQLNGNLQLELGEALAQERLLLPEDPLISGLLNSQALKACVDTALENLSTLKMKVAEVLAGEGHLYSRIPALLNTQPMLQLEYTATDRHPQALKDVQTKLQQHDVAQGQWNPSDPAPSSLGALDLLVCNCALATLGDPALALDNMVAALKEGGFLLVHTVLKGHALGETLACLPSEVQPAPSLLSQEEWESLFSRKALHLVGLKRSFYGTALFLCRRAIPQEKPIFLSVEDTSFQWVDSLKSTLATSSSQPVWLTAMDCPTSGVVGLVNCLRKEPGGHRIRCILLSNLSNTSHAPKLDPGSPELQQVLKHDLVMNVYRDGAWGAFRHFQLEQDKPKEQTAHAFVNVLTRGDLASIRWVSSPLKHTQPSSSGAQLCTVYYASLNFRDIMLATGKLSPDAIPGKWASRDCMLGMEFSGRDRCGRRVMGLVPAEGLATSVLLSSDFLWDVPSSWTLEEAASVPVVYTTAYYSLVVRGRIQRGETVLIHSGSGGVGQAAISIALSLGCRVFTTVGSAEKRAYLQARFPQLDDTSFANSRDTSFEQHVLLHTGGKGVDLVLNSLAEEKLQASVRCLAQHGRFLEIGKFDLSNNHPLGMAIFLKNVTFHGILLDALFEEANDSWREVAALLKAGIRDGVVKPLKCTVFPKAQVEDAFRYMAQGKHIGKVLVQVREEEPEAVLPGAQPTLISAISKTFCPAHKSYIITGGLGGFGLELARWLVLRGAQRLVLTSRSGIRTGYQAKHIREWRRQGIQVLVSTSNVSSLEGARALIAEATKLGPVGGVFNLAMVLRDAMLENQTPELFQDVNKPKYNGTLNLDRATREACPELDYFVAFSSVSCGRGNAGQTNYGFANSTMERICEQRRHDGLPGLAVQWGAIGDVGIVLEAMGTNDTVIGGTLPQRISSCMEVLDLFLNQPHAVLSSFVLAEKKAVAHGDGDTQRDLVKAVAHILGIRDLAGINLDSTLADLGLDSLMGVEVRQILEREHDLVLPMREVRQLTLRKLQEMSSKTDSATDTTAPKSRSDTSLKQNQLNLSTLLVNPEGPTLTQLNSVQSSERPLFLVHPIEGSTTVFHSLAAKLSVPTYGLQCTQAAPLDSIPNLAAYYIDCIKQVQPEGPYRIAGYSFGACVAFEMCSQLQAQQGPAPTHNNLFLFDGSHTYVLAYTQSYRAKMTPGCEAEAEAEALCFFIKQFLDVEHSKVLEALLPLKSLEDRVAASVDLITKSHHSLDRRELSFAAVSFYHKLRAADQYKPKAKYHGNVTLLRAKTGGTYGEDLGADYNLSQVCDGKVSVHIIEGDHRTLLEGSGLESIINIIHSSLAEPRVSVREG
T1 sequence (P06733 whole entry): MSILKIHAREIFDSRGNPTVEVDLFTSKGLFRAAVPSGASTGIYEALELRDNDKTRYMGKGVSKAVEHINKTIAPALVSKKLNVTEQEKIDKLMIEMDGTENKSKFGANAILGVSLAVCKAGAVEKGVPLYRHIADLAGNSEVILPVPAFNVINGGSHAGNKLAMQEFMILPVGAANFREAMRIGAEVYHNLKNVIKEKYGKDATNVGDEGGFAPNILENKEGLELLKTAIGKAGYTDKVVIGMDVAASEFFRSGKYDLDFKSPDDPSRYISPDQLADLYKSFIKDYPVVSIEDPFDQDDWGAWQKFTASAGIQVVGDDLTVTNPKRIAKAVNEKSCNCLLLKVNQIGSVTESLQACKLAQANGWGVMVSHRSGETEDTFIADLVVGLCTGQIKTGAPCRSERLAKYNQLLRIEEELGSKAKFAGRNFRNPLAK

On to `C=C1C(=O)OC(CCCCCCCC)C1C(=O)O` (centres unmarked) [C75], for which, on FASN, the food intake result was “reducing food intake” and the weight loss entry was “weight loss”.
Take `C/C=C/C/C=C/CCC(=O)[C@H]1O[C@H]1C(N)=O` [Cerulenin]: on FASN, the food intake result is “reducing food intake” and the weight loss result is “weight loss”.
In the case of `CNC(=O)c1cc(Oc2ccc(NC(=O)Nc3ccc(Cl)c(C(F)(F)F)c3)cc2)ccn1` [Sorafenib], the ENO1 activity entry at ENO1 is on record as “significant decrease; also recorded: downregulating”. The LDHA activity entry on LDHA [1] is on record as “significant decrease; also recorded: downregulating”. Further, the PGK1 activity entry at PGK1 is on record as “significant decrease; also recorded: downregulating”. Moreover, the LDHA protein expression entry in the test with LDHA [2] was “upregulation”.
